This data set can be described thus: Serum testosterone responder analysis after oral dosing (Table 3). Format: in vivo, human. As for the experimental part: Some of the dosage forms of compositions described herein comprising or prepared from (17-β)-3-Oxoandrost-4-en-17-yl tridecanoate were administered to human subjects as a single dose of the esters to subjects. Serial blood samples were drawn at predetermined time (e.g., t=0, 12, 24, etc.) and analyzed for testosterone concentration using a validated HPLC-MS/MS analytical method. The Cmax, Cavg t1-t2, Tmax and AUCt1-t2 are calculated for testosterone in the serum of the subjects. Pharmacokinetic and statistical analyses are performed on the data obtained from the subjects. The pharmacokinetic parameters are defined as follows: • AUCt1-t2: The area under the serum concentration versus time curve, from time t1 (in hours) to time t2 (in hours) measurable concentration of the administered drug, as calculated by the linear trapezoidal method. […] This represents the average serum testosterone level over a period starting from time 0 (zero) hours to […] post-administration of dose. It should also be noted that Cavg t0-t24 is also referred to as simply “Cavg” in this invention. • Cavg t0-t12: The average serum concentration of testosterone obtained by dividing the AUCt0-t12 value by 12. This represents the average serum testosterone level over a period starting from time 0 (zero) hours to […] post-administration of dose. • Cavg t12-24: The average serum concentration of testosterone obtained by dividing the AUCt12-t24 value by 12. This represents the average serum testosterone level over the second half of the 24-hours post-administration of dose period; i.e., from a period starting from time 12 hours to time 24 hours post-administration of dose.

Setting [1] is: starting dose 100 (±50) mg T equivalent QD or BID.
Where [2] appears, read: starting dose 300 (±50) mg T equivalent QD.
Setting [3] is: starting dose 350 (±100) mg T equivalent BID.
The mark [4] stands for this setting: starting dose 1000 (±200) mg T equivalent QD or BID.

Molecules are shown by their SMILES.

As to `CCCCCCCCCCCCC(=O)O[C@H]1CC[C@H]2[C@@H]3CCC4=CC(=O)CC[C@]4(C)[C@H]3CC[C@]12C` [(17-β)-3-Oxoandrost-4-en-17-yl tridecanoate], the “% Responders with Cave t0-t24 (ng/dL) 300-1140” value runs as follows: under setting [1], 50-65%; (starting dose 300 (±50) mg T equivalent QD, 12-20% EAPI formulation) 100%; under setting [3], 100%; under setting [4], 100%. Moreover, the “% Responders with Cmax (ng/dL) 1800-2500” value by setting is: under setting [1], 0-5%; under setting [2], 0-5%; under setting [3], 0-5%; under setting [4], 20-30%. Moreover, the “% Responders with Cmax (ng/dL) >2500” value runs as follows: under setting [1], 0-1%; under setting [2], 0-1%; under setting [3], 0-1%; under setting [4], 60-80%. The “% Responders with Cmax (ng/dL) ≤1500” value was determined as 100% under setting [1], 100% under setting [2], 100% under setting [3] and 0% under setting [4].
